# Assay results published in patent publication US20220372067A1, “3.ALPHA.-HYDROXY-17.BETA.-AMIDE NEUROACTIVE STEROIDS AND COMPOSITIONS THEREOF” (SAGE THERAPEUTICS, INC., priority 2018, published 2022).
# Target: GABAA receptor (TBPS binding site), rat brain cortical membranes
# Assay: [35S]-TBPS binding assay, rat brain cortical membranes in the presence of 5 mM GABA
# Settings: inhibition of 3 nM [35S]-TBPS binding
# Procedure: [^35S]-t-Butylbicyclophosphorothionate (TBPS) binding assays using rat brain cortical membranes in the presence of 5 mM GABA has been described (Gee et al, J. Pharmacol. Exp. Ther. 1987, 241, 346-353; Hawkinson et al, Mol. Pharmacol. 1994, 46, 977-985; Lewin, A. H et al., Mol. Pharmacol. 1989, 35, 189-194).
# Briefly, cortices are rapidly removed following decapitation of carbon dioxide-anesthetized Sprague-Dawley rats (200-250 g). The cortices are homogenized in 10 volumes of ice-cold 0.32 M sucrose using a glass/teflon homogenizer and centrifuged at 1500×g for 10 min at 4° C. The resultant supernatants are centrifuged at 10,000×g for 20 min at 4° C. to obtain the P2 pellets. The P2 pellets are resuspended in 200 mM NaCl/50 mM Na—K phosphate pH 7.4 buffer and centrifuged at 10,000×g for 10 min at 4° C. This washing procedure is repeated twice and the pellets are resuspended in 10 volumes of buffer. Aliquots ([…]) of the membrane suspensions are incubated with 3 nM [^35S]-TBPS and […] aliquots of test drug dissolved in dimethyl sulfoxide (DMSO) (final 0.5%) in the presence of 5 mM GABA. The incubation is brought to a final volume of 1.0 mL with buffer. Nonspecific binding is determined in the presence of […] and ranged from 15 to 25%. Following a 90 min incubation at room temp, the assays are terminated by filtration through glass fiber filters (Schleicher and Schuell No. 32) using a cell harvester (Brandel) and rinsed three times with ice-cold buffer. Filter bound radioactivity is measured by liquid scintillation spectrometry. Non-linear curve fitting of the overall data for each drug averaged for each concentration is done using Prism (GraphPad). […] The concentration of test compound producing 50% inhibition (IC50) of specific binding and the maximal extent of inhibition (Imax) are determined for the individual experiments with the same model used for the overall data and then the means±SEM.s of the individual experiments are calculated.
# Various compounds are or can be screened to determine their potential as modulators of [^35S]-TBPS binding in vitro. These assays are or can be performed in accordance with the above
row,Compound,IC50 [nM]
1,CCOC[C@@]1(O)CC[C@H]2[C@H](CC[C@@H]3[C@@H]2CC[C@]2(C)[C@@H](C(=O)Nc4cncc(C)n4)CC[C@@H]32)C1 [Example 24],< 100
2,"CC[C@@]1(O)CC[C@@]2(C)[C@H](CC[C@@H]3[C@@H]2CC[C@]2(C)[C@@H](C(=O)Nc4nc(C)ccc4Cl)CC[C@@H]32)C1 [Example 15, (3R,5R,8R,9S,10S,13S,14S,17S)-N-(3-chloro-6-methylpyridin-2-yl)-3-ethyl-3-hydroxy-10,13-dimethylhexadecahydro-1H-cyclopenta[a]phenanthrene-17-carboxamide]",100 to 1000
3,COC[C@@]1(O)CC[C@H]2[C@H](CC[C@@H]3[C@@H]2CC[C@]2(C)[C@@H](C(=O)Nc4cccc(-n5ccc(C)n5)n4)CC[C@@H]32)C1 [Example 45],< 100
4,CCOC[C@@]1(O)CC[C@H]2[C@H](CC[C@@H]3[C@@H]2CC[C@]2(C)[C@@H](C(=O)Nc4cnc(C)cn4)CC[C@@H]32)C1 [Example 25],< 100
5,COC[C@@]1(O)CC[C@H]2[C@H](CC[C@@H]3[C@@H]2CC[C@]2(C)[C@@H](C(=O)Nc4cccc(N5CCCC5=O)n4)CC[C@@H]32)C1 [Example 50],< 100
6,"CCOC[C@@]1(O)CC[C@H]2[C@H](CC[C@@H]3[C@@H]2CC[C@]2(C)[C@@H](C(=O)Nc4ncccc4C)CC[C@@H]32)C1 [Example 2, (3R,5R,8R,9R,10S,13S,14S,17S)-3-(ethoxymethyl)-3-hydroxy-13-methyl-N-(3-methylpyridin-2-yl)hexadecahydro-1H-cyclopenta[a]phenanthrene-17-carboxamide]",> 1000
7,"COC[C@@]1(O)CC[C@H]2[C@H](CC[C@@H]3[C@@H]2CC[C@]2(C)[C@@H](C(=O)Nc4ccc(F)cn4)CC[C@@H]32)C1 [Example 10, (3R,5R,8R,9R,10S,13S,14S,17S)-N-(5-fluoropyridin-2-yl)-3-hydroxy-3-(methoxymethyl)-13-methylhexadecahydro-1H-cyclopenta[a]phenanthrene-17-carboxamide]",< 100
8,COC[C@@]1(O)CC[C@@]2(C)[C@@H](CC[C@@H]3[C@@H]2CC[C@]2(C)[C@@H](C(=O)Nc4cccnc4C)CC[C@@H]32)C1 [Example 32],< 100
9,"CCC[C@@]1(O)CC[C@H]2[C@H](CC[C@@H]3[C@@H]2CC[C@]2(C)[C@@H](C(=O)Nc4ccc(C#N)cn4)CC[C@@H]32)C1 [Example 67, (3R,5R,8R,9R,10S,13S,14S,17S)-N-(5-cyanopyridin-2-yl)-3-hydroxy-13-methyl-3-propylhexadecahydro-1H-cyclopenta[a]phenanthrene-17-carboxamide]",< 100
10,COC[C@@]1(O)CC[C@H]2[C@H](CC[C@@H]3[C@@H]2CC[C@]2(C)[C@@H](C(=O)Nc4ccc(-c5ncc(F)cn5)nc4C)CC[C@@H]32)C1 [Example 48],< 100
11,"CC[C@@]1(O)CC[C@H]2[C@H](CC[C@@H]3[C@@H]2CC[C@]2(C)[C@@H](C(=O)Nc4nc(C)ccc4Cl)CC[C@@H]32)C1 [Example 16, (3R,5R,8R,9R,10S,13S,14S,17S)-N-(3-chloro-6-methylpyridin-2-yl)-3-ethyl-3-hydroxy-13-methylhexadecahydro-1H-cyclopenta[a]phenanthrene-17-carboxamide]",100 to 1000
12,CCOC[C@@]1(O)CC[C@H]2[C@H](CC[C@@H]3[C@@H]2CC[C@]2(C)[C@@H](C(=O)Nc4ccc(N5CCCC5=O)nc4C)CC[C@@H]32)C1 [Example 65],< 100
13,"CCOC[C@@]1(O)CC[C@@]2(COC(C)C)[C@H](CC[C@H]3[C@@H]4CC[C@H](C(=O)Nc5ccc(C#N)cn5)[C@@]4(C)CC[C@@H]32)C1 [Example 9, (3R,5R,8S,9S,10R,13S,14S,17S)-N-(5-cyanopyridin-2-yl)-3-(ethoxymethyl)-3-hydroxy-10-(isopropoxymethyl)-13-methylhexadecahydro-1H-cyclopenta[a]phenanthrene-17-carboxamide]",< 100
14,"CCOC[C@@]1(O)CC[C@H]2[C@H](CC[C@@H]3[C@@H]2CC[C@]2(C)[C@@H](C(=O)Nc4cccc(C)n4)CC[C@@H]32)C1 [Example 4, (3R,5R,8R,9R,10S,13S,14S,17S)-3-(ethoxymethyl)-3-hydroxy-13-methyl-N-(6-methylpyridin-2-yl)hexadecahydro-1H-cyclopenta[a]phenanthrene-17-carboxamide]",< 100
15,"COC[C@@]1(O)CC[C@@]2(C)[C@@H](CC[C@@H]3[C@@H]2CC[C@]2(C)[C@@H](C(=O)Nc4cccc(C)n4)CC[C@@H]32)C1 [Example 5, (3R,5S,8R,9S,10S,13S,14S,17S)-3-hydroxy-3-(methoxymethyl)-10,13-dimethyl-N-(6-methylpyridin-2-yl)hexadecahydro-1H-cyclopenta[a]phenanthrene-17-carboxamide]",< 100
16,COC[C@@]1(O)CC[C@H]2[C@H](CC[C@@H]3[C@@H]2CC[C@]2(C)[C@@H](C(=O)Nc4ncccc4Cl)CC[C@@H]32)C1 [Example 39],100 to 1000

row,Compound,IC50 [nM]
1,CCOC[C@@]1(O)CC[C@H]2[C@H](CC[C@@H]3[C@@H]2CC[C@]2(C)[C@@H](C(=O)Nc4cccc(N5CCCC5=O)n4)CC[C@@H]32)C1 [Example 64],< 100
2,COC[C@@]1(O)CC[C@H]2[C@H](CC[C@@H]3[C@@H]2CC[C@]2(C)[C@@H](C(=O)Nc4ccc(C#N)nc4C)CC[C@@H]32)C1 [Example 41],< 100
3,CCOC[C@@]1(O)CC[C@H]2[C@H](CC[C@@H]3[C@@H]2CC[C@]2(C)[C@@H](C(=O)Nc4ncc(C)cc4C)CC[C@@H]32)C1 [Example 62],100 to 1000
4,CCOC[C@@]1(O)CC[C@H]2[C@H](CC[C@@H]3[C@@H]2CC[C@]2(C)[C@@H](C(=O)Nc4ncc(C#N)cc4Cl)CC[C@@H]32)C1 [Example 26],< 100
5,COC[C@@]1(O)CC[C@H]2[C@H](CC[C@@H]3[C@@H]2CC[C@]2(C)[C@@H](C(=O)Nc4ccc(C(F)(F)F)nc4C)CC[C@@H]32)C1 [Example 46],< 100
6,COC[C@@]1(O)CC[C@H]2[C@H](CC[C@@H]3[C@@H]2CC[C@]2(C)[C@@H](C(=O)Nc4ccc(-n5nccc5C)nc4C)CC[C@@H]32)C1 [Example 47],< 100
7,"CCOC[C@@]1(O)CC[C@H]2[C@H](CC[C@@H]3[C@@H]2CC[C@]2(C)[C@@H](C(=O)Nc4cccnc4F)CC[C@@H]32)C1 [Example 66, (3R,5R,8R,9R,10S,13S,14S,17S)-3-(ethoxymethyl)-N-(2-fluoropyridin-3-yl)-3-hydroxy-13-methylhexadecahydro-1H-cyclopenta[a]phenanthrene-17-carboxamide]",< 100
8,CCOC[C@@]1(O)CC[C@H]2[C@H](CC[C@@H]3[C@@H]2CC[C@]2(C)[C@@H](C(=O)Nc4cccc(C#N)n4)CC[C@@H]32)C1 [Example 60],< 100
9,CCOC[C@@]1(O)CC[C@H]2[C@H](CC[C@@H]3[C@@H]2CC[C@]2(C)[C@@H](C(=O)Nc4ccc(C#N)cn4)CC[C@@H]32)C1 [Example 22],< 100
10,"Cc1nc2ccccn2c1NC(=O)[C@H]1CC[C@H]2[C@@H]3CC[C@@H]4C[C@](C)(O)CC[C@@H]4[C@H]3CC[C@]12C [Example 6, (3R,5R,8R,9R,10S,13S,14S,17S)-3-hydroxy-3,13-dimethyl-N-(2-methylimidazo[1,2-a]pyridin-3-yl)hexadecahydro-1H-cyclopenta[a]phenanthrene-17-carboxamide]",100 to 1000
11,COC[C@@]1(O)CC[C@H]2[C@H](CC[C@@H]3[C@@H]2CC[C@]2(C)[C@@H](C(=O)Nc4ccc(N5CCCC5=O)nc4C)CC[C@@H]32)C1 [Example 49],< 100
12,CCOC[C@@]1(O)CC[C@H]2[C@H](CC[C@@H]3[C@@H]2CC[C@]2(C)[C@@H](C(=O)Nc4cc(C)nn4C)CC[C@@H]32)C1 [Example 30],< 100
13,CCOC[C@@]1(O)CC[C@H]2[C@H](CC[C@@H]3[C@@H]2CC[C@]2(C)[C@@H](C(=O)Nc4cc(C5CC5)nn4C)CC[C@@H]32)C1 [Example 56],< 100
14,CCOC[C@@]1(O)CC[C@H]2[C@H](CC[C@@H]3[C@@H]2CC[C@]2(C)[C@@H](C(=O)Nc4ccnc(C)n4)CC[C@@H]32)C1 [Example 63],< 100
15,COC[C@@]1(O)CC[C@H]2[C@H](CC[C@@H]3[C@@H]2CC[C@]2(C)[C@@H](C(=O)Nc4ccc(C)nc4)CC[C@@H]32)C1 [Example 40],< 100
